Measurements as given in paper PMC10041525, “New Dual Inhibitors of Bacterial Topoisomerases with Broad-Spectrum Antibacterial Activity and In Vivo Efficacy against Vancomycin-Intermediate Staphylococcus aureus” (Journal of Medicinal Chemistry, 2023).
Converted amounts (≈) assume the structure as drawn. Read-outs that look alike come from different tables or passages of the source.

Test system: 100 A. baumannii strains (50 MDR, 50 non-MDR)
Assay: MIC broth microdilution at IHMA Europe, panel of 100 strains
Assay type: cell-based
Settings: for MIC / MIC50 / MIC90: Acinetobacter baumannii; for MIC50: read-out: MIC 50; for MIC90: read-out: MIC 90

In the case of `C[C@@H](O)[C@H]1C(=O)N2C(C(=O)O)=C(S[C@@H]3CN[C@H](C(=O)N(C)C)C3)[C@H](C)[C@H]12` [Meropenem, meropenem], the MIC (A. baumannii IHMA 2156634, Turkey 2020, MDR, read-out: MIC) is reported as > 16 µg/mL, the MIC (A. baumannii IHMA 2156709, Turkey 2020, MDR, read-out: MIC) is reported as > 16 µg/mL and the MIC (A. baumannii IHMA 2157614, Australia 2020, Non-MDR, read-out: MIC) is reported as 0.25 µg/mL (≈ 0.652 µM). For the same compound, the MIC (A. baumannii IHMA 2177232, Lithuania 2020, MDR, read-out: MIC) was > 16 µg/mL, the MIC (A. baumannii IHMA 2177489, Lithuania 2020, MDR, read-out: MIC) was > 16 µg/mL and the MIC (A. baumannii IHMA 2178574, Ukraine 2020, Non-MDR, read-out: MIC) was ≤ 0.06 µg/mL. The MIC (A. baumannii IHMA 2180134, Malaysia 2020, Non-MDR, read-out: MIC) was 0.25 µg/mL (≈ 0.652 µM), the MIC (A. baumannii IHMA 2180142, Malaysia 2020, MDR, read-out: MIC) was > 16 µg/mL and the MIC (A. baumannii IHMA 2181370, Morocco 2020, MDR, read-out: MIC) was > 16 µg/mL. For the same compound, the MIC (A. baumannii IHMA 2183729, Argentina 2020, MDR, read-out: MIC) was > 16 µg/mL, the MIC (A. baumannii IHMA 2183849, Argentina 2020, Non-MDR, read-out: MIC) was 0.12 µg/mL (≈ 0.313 µM) and the MIC (A. baumannii IHMA 2184382, Japan 2020, Non-MDR, read-out: MIC) was 0.12 µg/mL (≈ 0.313 µM). The MIC (A. baumannii IHMA 2193375, Venezuela 2020, MDR, read-out: MIC) was > 16 µg/mL, the MIC (A. baumannii IHMA 2193485, Venezuela 2020, Non-MDR, read-out: MIC) was 0.12 µg/mL (≈ 0.313 µM) and the MIC (A. baumannii IHMA 2193607, Venezuela 2020, MDR, read-out: MIC) was > 16 µg/mL. For the same compound, the MIC (A. baumannii IHMA 2195460, Italy 2020, MDR, read-out: MIC) was > 16 µg/mL, the MIC (A. baumannii IHMA 2196914, South Africa 2020, MDR, read-out: MIC) was > 16 µg/mL and the MIC (A. baumannii IHMA 2196959, South Africa 2020, MDR, read-out: MIC) was > 16 µg/mL. For the same compound, the MIC (A. baumannii IHMA 2203763, Spain 2020, MDR, read-out: MIC) was > 16 µg/mL, the MIC (A. baumannii IHMA 2205144, Korea, South 2020, MDR, read-out: MIC) was 16 µg/mL (≈ 41.7 µM) and the MIC (A. baumannii IHMA 2206459, Taiwan 2020, MDR, read-out: MIC) was > 16 µg/mL. It also gave an MIC (A. baumannii IHMA 2206507, Taiwan 2020, Non-MDR, read-out: MIC) of 0.12 µg/mL (≈ 0.313 µM), an MIC (A. baumannii IHMA 2212575, Hungary 2020, Non-MDR, read-out: MIC) of 0.5 µg/mL (≈ 1.3 µM) and an MIC (A. baumannii IHMA 2215307, Hong Kong 2020, Non-MDR, read-out: MIC) of 0.25 µg/mL (≈ 0.652 µM). The MIC (A. baumannii IHMA 2216586, Taiwan 2020, MDR, read-out: MIC) was > 16 µg/mL, the MIC (A. baumannii IHMA 2223200, Colombia 2020, Non-MDR, read-out: MIC) was 0.12 µg/mL (≈ 0.313 µM) and the MIC (A. baumannii IHMA 2224017, Panama 2020, MDR, read-out: MIC) was > 16 µg/mL. The MIC (A. baumannii IHMA 2224303, Panama 2020, Non-MDR, read-out: MIC) was 1 µg/mL (≈ 2.61 µM), the MIC (A. baumannii IHMA 2231797, Greece 2020, MDR, read-out: MIC) was > 16 µg/mL and the MIC (A. baumannii IHMA 2233099, Guatemala 2020, MDR, read-out: MIC) was > 16 µg/mL. The MIC (A. baumannii IHMA 2233430, Kazakhstan 2020, MDR, read-out: MIC) was > 16 µg/mL, the MIC (A. baumannii IHMA 2233548, Kazakhstan 2020, Non-MDR, read-out: MIC) was 0.25 µg/mL (≈ 0.652 µM) and the MIC (A. baumannii IHMA 2238964, Thailand 2020, MDR, read-out: MIC) was > 16 µg/mL. The MIC (A. baumannii IHMA 2239052, Thailand 2020, Non-MDR, read-out: MIC) was 0.12 µg/mL (≈ 0.313 µM), the MIC (A. baumannii IHMA 2261047, Belgium 2020, MDR, read-out: MIC) was > 16 µg/mL and the MIC (A. baumannii IHMA 2261633, Canada 2020, Non-MDR, read-out: MIC) was 0.12 µg/mL (≈ 0.313 µM). For the same compound, the MIC (A. baumannii IHMA 2274234, South Africa 2020, MDR, read-out: MIC) was > 16 µg/mL, the MIC (A. baumannii IHMA 2274364, South Africa 2020, MDR, read-out: MIC) was > 16 µg/mL and the MIC (A. baumannii IHMA 2275237, Chile 2020, Non-MDR, read-out: MIC) was 0.25 µg/mL (≈ 0.652 µM). The MIC (A. baumannii IHMA 2275751, Jordan 2020, MDR, read-out: MIC) was > 16 µg/mL, the MIC (A. baumannii IHMA 2316205, United States 2020, MDR, read-out: MIC) was > 16 µg/mL and the MIC (MDR n = 50, read-out: MAX (maximum MIC; all strains inhibited)) was > 16 µg/mL. The MIC50 (MDR n = 50) was > 16 µg/mL, the MIC90 (MDR n = 50) was > 16 µg/mL and the MIC (MDR n = 50, read-out: MIN (minimum MIC)) was 16 µg/mL (≈ 41.7 µM). For the same compound, the MIC (all isolates n = 100, read-out: MAX (maximum MIC; all strains inhibited)) was > 16 µg/mL, the MIC50 (all isolates n = 100) was 1 µg/mL (≈ 2.61 µM) and the MIC90 (all isolates n = 100) was > 16 µg/mL. The MIC (all isolates n = 100, read-out: MIN (minimum MIC)) was ≤ 0.06 µg/mL, the MIC (non-MDR n = 50, read-out: MAX (maximum MIC)) was 1 µg/mL (≈ 2.61 µM) and the MIC50 (non-MDR n = 50) was 0.25 µg/mL (≈ 0.652 µM). For the same compound, the MIC90 (non-MDR n = 50) was 0.25 µg/mL (≈ 0.652 µM), the MIC (non-MDR n = 50, read-out: MIN (minimum MIC)) was ≤ 0.06 µg/mL and the “Percentage I” value (MDR n = 50) was 0%. The “Percentage R” value (MDR n = 50) was 100%, the “Percentage S” value (MDR n = 50) was 0% and the “Percentage I” value (all n = 100, CLSI breakpoints) was 0%. The “Percentage R” value (all n = 100, CLSI breakpoints) was 50%, the “Percentage S” value (all n = 100, CLSI breakpoints) was 50% and the “Percentage I” value (non-MDR n = 50) was 0%. For the same compound, the “Percentage R” value (non-MDR n = 50) was 0% and the “Percentage S” value (non-MDR n = 50) was 100%.
